Source: ChEMBL document CHEMBL1131293, “N-[omega-(Tetralin-1-yl)alkyl] derivatives of 3,3-dimethylpiperidine are highly potent and selective sigma1 or sigma2 ligands” (J Med Chem, 1998)

How the values were obtained:
[1] = target: Sigma non-opioid intracellular receptor 1 (Rattus norvegicus) (UniProt Q9R0C9); experiment: IC50 ratio; sigma 1 to sigma 2; conditions: Cavia porcellus
[2] = target: Sigma 2 receptor; experiment: Evaluated for the binding affinity towards sigma 2 receptor by displacing the radioligand [3H]DTG in guinea-pig brain cortex.; parameters: species or system Cavia porcellus
[3] = target: Sigma non-opioid intracellular receptor 1 (Rattus norvegicus, UniProt Q9R0C9); experiment: Evaluated for the binding affinity towards sigma 1 receptor by displacing the radioligand [3H]-SKF- 10047 in whole rat brain membrane.; assay type: cell membranes
Sigma non-opioid intracellular receptor 1, sequence (Q9R0C9 whole entry): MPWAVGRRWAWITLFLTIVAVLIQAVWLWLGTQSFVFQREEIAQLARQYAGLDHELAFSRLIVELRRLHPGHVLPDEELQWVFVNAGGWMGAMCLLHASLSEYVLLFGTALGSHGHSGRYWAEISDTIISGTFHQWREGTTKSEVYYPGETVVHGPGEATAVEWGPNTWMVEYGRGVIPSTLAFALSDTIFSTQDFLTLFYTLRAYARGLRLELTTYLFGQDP

[4] = target: Sigma non-opioid intracellular receptor 1 (Rattus norvegicus) (UniProt Q9R0C9); experiment: IC50 ratio; sigma 2 to sigma 1; conditions: Cavia porcellus

Sigma non-opioid intracellular receptor 1 (Rattus norvegicus), sequence (Q9R0C9 whole entry): as above

Compound	Ratio [1]	IC50 [2] [nM]	IC50 [3] [nM]	Ratio [4]
COc1ccc2c(c1)CCC2CCCN1CCCC(C)(C)C1 (centres undefined)	4610	1.01	4660	
COc1ccc2c(c1)CCCC2CCCN1CCCC(C)(C)C1 (centres undefined)	> 114	88	> 10000	
CC1(C)CCCN(CCCC2CCCc3ccccc32)C1 (centres undefined)	2	135	252	0.5
COc1cccc2c1CCCC2CCCN1CCCC(C)(C)C1 (single isomer, unassigned; (+)) [listing 1 of 2 here]				1340
COc1cccc2c1CCCC2CCCN1CCCC(C)(C)C1 (stereo in doubt; (-)-22) [listing 1 of 2 here]		111	0.85	
COc1cccc2c1CCCC2CCCN1CCCC(C)(C)C1 (single isomer, unassigned; (+)) [listing 2 of 2 here]		119	0.089	
COc1ccc2c(c1)CCCC2CCCCCN1CCCC(C)(C)C1 (centres undefined)	21	0.03	0.62	
CC1(C)CCCN(CCCCCC2CCCc3ccccc32)C1 (centres undefined)	> 100000	0.008	1520	
CC1(C)CCCN(CCCCC2CCCc3ccccc32)C1 (centres undefined)		5.5	0.69	8
CC1(C)CCCN(CCCCC2=CCCc3ccccc32)C1	8590	1.1	9450	
COc1cccc2c1CCCC2CCCN1CCCC(C)(C)C1 (racemic) [listing 1 of 2 here]		138	0.48	
COc1cccc2c1CCC2CCCCN1CCCC(C)(C)C1 (centres undefined)	2	4.6	9.3	0.5
CC1(C)CCCN(CCCC2CCc3ccccc32)C1 (centres undefined)	1.5	4.5	6.9	0.6
CC1(C)CCCN(CCCC2CCCc3c(O)cccc32)C1 (centres undefined)		100	41	2
COc1ccc2c(c1)C(CCCCN1CCCC(C)(C)C1)CCC2 (centres undefined)	58	0.44	25.6	
CC1(C)CCCN(CCCCCc2ccccc2)C1	583	10	5830	
COc1cccc2c1CCCC2CCCN1CCCC(C)(C)C1 (racemic) [listing 2 of 2 here]				287
COc1ccc2c(c1)C(CCCN1CCCC(C)(C)C1)CCC2 (centres undefined)		109	22	5
CC1(C)CCCN(CCCC2=CCc3ccccc32)C1	1	1.09	0.99	1
CC1(C)CCCN(CCC2CCCc3ccccc32)C1 (centres undefined)	> 9090	1.1	> 10000	
COc1cccc2c1CCCC2CCCCN1CCCC(C)(C)C1 (centres undefined)	8	129	978	
COc1cccc2c1CCCC2CCCN1CCCC(C)(C)C1 (stereo in doubt; (-)-22) [listing 2 of 2 here]				131
COc1ccc2c(c1)CCCC2CCCCN1CCCC(C)(C)C1 (centres undefined)	> 100000	0.016	2150	
